Assay results reported in patent publication US20040092485A1, “Ascorbic acid 2-phosphate metal salt with low calcium content” (priority 2001, published 2004).
Where a name gives a salt, the structure may show the parent alone.

Legend:
[1] = In-solution Stability Test 2 (clouding by eye in citrate/citric acid, glycerol·1,3-butylene glycol·ethanol, water solution); type: physicochemical; design: key to In-solution Stability Test 2 Room Temperature (20° C.) / In-solution Stability Test 2 50° C.: A: No clouding; B: Clouded; Distinguished Clouding; settings: for In-solution Stability Test 2 50° C.: left standing at 50° C. for 10 days; for In-solution Stability Test 2 50° C. / In-solution Stability Test 2 Room Temperature (20° C.): 2 g sample, 15 g mixed solution, clouding state observed by eye; for In-solution Stability Test 2 Room Temperature (20° C.): left standing at room temperature (20° C.) for 1 month
Experimental: In-solution Stability Test 2
(§1) Into a 200 ml-volume Erlenmeyer flask, 2 g of a sample (APM), 0.4 g of sodium citrate dihydrate and 0.05 g of citric acid were charged. Thereto, 15 g of glycerol·1,3-butylene glycol·ethanol mixed solution (volume ratio: 3:5:8) was charged and the resulting solution was stirred for 30 minutes. Thereto, 82 g of pure water was added and further stirred for 2 hours. After filtering this solution through a filter, a half amount was left standing at room temperature (20° C.) for 1 month and the remaining half amount was left standing at 50° C. for 10 days.

[2] = In-solution Stability Test 1 (clouding by eye in citrate/citric acid, glycerol·1,3-butylene glycol·ethanol, water solution); type: physicochemical; design: key to In-solution Stability Test 1 Room Temperature (20° C.) / In-solution Stability Test 1 50° C.: A: No clouding; B: Clouded; Distinguished Clouding; settings: for In-solution Stability Test 1 50° C.: left standing at 50° C. for 10 days; for In-solution Stability Test 1 50° C. / In-solution Stability Test 1 Room Temperature (20° C.): 2 g sample, 16 g mixed solution, clouding state observed by eye; for In-solution Stability Test 1 Room Temperature (20° C.): left standing at room temperature (20° C.) for 1 month
Experimental: In-solution Stability Test 1
as §1, with “charged. Thereto, 16 g of” for “charged. Thereto, 15 g of”, “3:5:8) was added and the” for “3:5:8) was charged and the”, “added and the resulting solution was further stirred” for “added and further stirred”

[3] = temperature not specified in the sentence (whole test)

SMILES	clouding in in-solution stability test 2 ([1]; 50° C.)	In-solution Stability Test 2 50° C. [1]	In-solution Stability Test 2 Room Temperature (20° C.) [1]	clouding in in-solution stability test 2 ([1]; room temperature (20° C.))	clouding in in-solution stability test 1 ([2]; 50° C.)	In-solution Stability Test 1 50° C. [2]	In-solution Stability Test 1 Room Temperature (20° C.) [2]	clouding in in-solution stability test 1 ([2]; room temperature (20° C.))	clouding in in-solution stability test 2 [1, 3]	clouding in in-solution stability test 1 [2, 3]
O=C1O[C@H]([C@@H](O)CO)C(O)=C1OP(=O)([O-])[O-].[Mg+2] [Comparative Example 2, L-ascorbic acid 2-phosphate magnesium salt]	distinguished clouding was observed	C	C	distinguished clouding was observed	more distinguished clouding was observed	C	B	clouding was observed	–	–
O=C1O[C@H]([C@@H](O)CO)C(O)=C1OP(=O)(O)O [Example 1, L-ascorbic acid 2-phosphate magnesium salt]	–	A	A	–	–	A	A	–	clouding was not observed	clouding was not observed
O=C1O[C@H]([C@@H](O)CO)C(O)=C1OP(=O)([O-])[O-].[Mg+2] [Comparative Example 1, L-ascorbic acid 2-phosphate magnesium salt]	more distinguished clouding was observed	C	B	clouding was observed	more distinguished clouding was observed	C	B	clouding was observed	–	–
